Test results published in paper PMC10922772 (ACS infectious diseases, 2024).

Key:
[1] = tested on: SARS-CoV-2 (Washington strain, 2020); assay: microbe, parasite or virus in culture; assay type: cell-based; settings: for EC68 (half-log reduction of virus titer): 0.01 MOI
SARS-CoV-2 Mpro = SARS-CoV-2 Mpro (Severe acute respiratory syndrome coronavirus 2, UniProt P0DTD1); assay: biochemical; settings: for IC50: IC50, enzyme 100 nM, substrate 20 μM, 10 min preincubation, pH 6.5; for activity reduction vs. compound 30: compared with more active diastereomer of 30; for inhibition at 20 µM: read-out: % inhibition at 20 μM
[2] = Severe acute respiratory syndrome coronavirus 2, Vero, read-out: inhibition of SARS-CoV-2 replication

Compound	IC50 (SARS-CoV-2 Mpro)	EC68 (half-log reduction of virus titer) ([1]; Vero cells, 48 h)	inhibition at 20 µM (SARS-CoV-2 Mpro)	also measured
CC(C)(C)c1ccc(N(C(=O)C2OC2(C)C)C(C(=O)NC2CCCCC2)c2cccnc2)cc1 (stereo not drawn) [Compound 36, N-(4-(tert-Butyl)phenyl)-N-(2-(cyclohexylamino)-2-oxo-1-(pyridin-3-yl)ethyl)-3,3-dimethyloxirane-2-carboxamide]	2500 ± 280 nM	–	–	antiviral activity (in words) ([1]; at 15 μM, Vero cells): inactive; activity reduction vs. compound 30 (SARS-CoV-2 Mpro): ≤ 3 fold
CC(C)(C)NC(=O)C(c1cccnc1)N(C(=O)CCl)c1ccc(C(C)(C)C)cc1 (stereo not drawn) [Compound 13, N-(tert-Butyl)-2-(N-(4-(tert-butyl)phenyl)-2-chloroacetamido)-2-(pyridin-3-yl)acetamide]	600 ± 50 nM	3 μM	–	inhibition at 3 µM [1, 2]: 68%; inhibition at 5 µM [1, 2]: 97%; titer reduction ([1]; at 3 μM, Vero cells): 0.5 log; titer reduction ([1]; at 5 μM, Vero cells): 1.5 log
CC(C)(C)c1ccc(N(C(=O)C2CO2)C(C(=O)NC2CCCCC2)c2cccnc2)cc1 [(R, S)- and (S, R)-30, N-(4-(tert-Butyl)phenyl)-N-(2-(cyclohexylamino)-2-oxo-1-(pyridin-3-yl)ethyl)oxirane-2-carboxamide]	760 ± 180 nM	5 μM	–	EC90 ([1]; Severe acute respiratory syndrome coronavirus 2, Vero, 48 h): 15000 nM; activity difference between the two separated diastereomers (SARS-CoV-2 Mpro): > 10 fold
CC1OC1C(=O)N(c1ccc(C(C)(C)C)cc1)C(C(=O)NC1CCCCC1)c1cccnc1 [(R, S, R)- and (S, R, S)-35, N-(4-(tert-Butyl)phenyl)-N-(2-(cyclohexylamino)-2-oxo-1-(pyridin-3-yl)ethyl)-3-methyloxirane-2-carboxamide]	1900 ± 210 nM	15 μM	–	activity difference between the two separated diastereomers (SARS-CoV-2 Mpro): > 10 fold; activity reduction vs. compound 30 (SARS-CoV-2 Mpro): ≤ 3 fold
CC(C)(C)NC(=O)C(c1cccnc1)N(C(=O)CCl)c1cccc(NC(=O)CCl)c1 (stereo not drawn) [Compound 18, N-(tert-Butyl)-2-(2-chloro-N-(3-(2-chloroacetamido)phenyl)acetamido)-2-(pyridin-3-yl)acetamide]	3600 ± 600 nM	–	–	–
O=C(Nc1ccc(N(C(=O)c2ccco2)C(C(=O)NCc2ccccc2)c2cccnc2)cc1)C(Cl)Cl (stereo not drawn) [Compound 6, N-(2-(Benzylamino)-2-oxo-1-(pyridin-3-yl)ethyl)-N-(4-(2,2-dichloroacetamido)phenyl)furan-2-carboxamide]	–	–	41%	–
O=C(NCc1ccccc1)C(c1cccnc1)N(C(=O)c1ccco1)c1ccc(-c2ccccc2)cc1 (stereo not drawn) [Compound 1, N-([1,1’-Biphenyl]-4-yl)-N-(2-(benzylamino)-2-oxo-1-(pyridin-3-yl)ethyl)furan-2-carboxamide]	740 ± 70 nM	–	–	–
C=CC(=O)Nc1cccc(N(C(=O)c2ccco2)C(C(=O)NCc2ccccc2)c2cccnc2)c1 (stereo not drawn) [Compound 10, N-(3-Acrylamidophenyl)-N-(2-(benzylamino)-2-oxo-1-(pyridin-3-yl)ethyl)furan-2-carboxamide]	–	–	5%	–
CC(C)(C)NC(=O)C(c1cccnc1)N(C(=O)C1CO1)c1ccc(C(C)(C)C)cc1 [(R, R)- and (S, S)-38, N-(4-(tert-Butyl)phenyl)-N-(2-(tert-butylamino)-2-oxo-1-(pyridin-3-yl)ethyl)oxirane-2-carboxamide]	–	–	21%	–
O=C(CCl)Nc1cccc(N(C(=O)c2ccco2)C(C(=O)NCc2ccccc2)c2cccnc2)c1 (stereo not drawn) [Compound 8, N-(2-(Benzylamino)-2-oxo-1-(pyridin-3-yl)ethyl)-N-(3-(2-chloroacetamido)phenyl)furan-2-carboxamide]	~20000 nM	–	47%	–
